This note sets out measurements from patent EP0918774B9, “ANDROGEN RECEPTOR MODULATOR COMPOUNDS AND METHODS” (LIGAND PHARMACEUTICALS INCORPORATED, priority 1996, dated 1997).

SMILES strings stand for the structures.

For assay [1], the target named is T1, ER (Homo sapiens, UniProt P03372).
T1 construct: expressed in transfected cells; host or cells: CV-1 cells
Briefly: Co-transfection assay, ER agonist mode. The class given is cell-based. On the procedure:
(§1) CV-1 cells (African green monkey kidney fibroblasts) were cultured in the presence of Dulbecco's Modified Eagle Medium (DMEM) supplemented with 10% charcoal resinstripped fetal bovine serum then transferred to 96-well microtiter plates one day prior to transfection.
(§2) Three to four replicates were used for each sample.
(§3) After 40 hours, the cells were washed with PBS, lysed with a Triton X-100-based buffer and assayed for LUC and β-Gal activities using a luminometer or spectrophotometer, respectively. For each replicate, the normalized response (NR) was calculated as: LUC response/β-Gal rate where β-Gal rate = β-Gal•1x10^-5/β-Gal incubation time.

Assay [2] has as its target T1, ER. Briefly: Co-transfection assay, ER antagonist mode. The format is cell-based. On the procedure:
as §1, §2, §3

The target in the next assay is T2, GR (Homo sapiens, UniProt P04150).
T2 sequence (P04150 1-777): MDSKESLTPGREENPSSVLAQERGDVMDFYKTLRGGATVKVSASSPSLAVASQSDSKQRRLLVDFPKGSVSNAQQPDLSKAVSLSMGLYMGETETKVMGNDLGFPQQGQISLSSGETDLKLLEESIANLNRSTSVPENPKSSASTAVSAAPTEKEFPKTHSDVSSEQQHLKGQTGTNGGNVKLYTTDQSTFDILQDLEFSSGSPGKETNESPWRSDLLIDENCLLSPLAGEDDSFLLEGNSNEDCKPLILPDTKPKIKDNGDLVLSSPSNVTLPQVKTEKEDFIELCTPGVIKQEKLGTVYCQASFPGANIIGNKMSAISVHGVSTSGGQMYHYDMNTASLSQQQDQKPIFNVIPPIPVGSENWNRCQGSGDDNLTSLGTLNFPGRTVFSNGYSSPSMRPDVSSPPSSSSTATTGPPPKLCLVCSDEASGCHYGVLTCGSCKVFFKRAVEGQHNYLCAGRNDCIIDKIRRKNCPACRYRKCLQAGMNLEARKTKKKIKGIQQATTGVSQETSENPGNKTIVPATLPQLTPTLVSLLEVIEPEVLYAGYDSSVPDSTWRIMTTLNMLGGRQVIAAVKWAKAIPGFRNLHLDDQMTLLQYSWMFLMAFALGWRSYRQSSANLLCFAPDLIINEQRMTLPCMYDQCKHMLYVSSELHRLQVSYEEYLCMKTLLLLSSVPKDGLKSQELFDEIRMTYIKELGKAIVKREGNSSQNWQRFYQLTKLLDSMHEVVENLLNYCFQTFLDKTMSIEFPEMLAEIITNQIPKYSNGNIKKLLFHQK
The assay is described as follows: cell-based. The method, then:
as §1, §2, §3

The target of assay [3] is T3, PR (Homo sapiens, UniProt P06401).
T3 sequence (P06401 1-933): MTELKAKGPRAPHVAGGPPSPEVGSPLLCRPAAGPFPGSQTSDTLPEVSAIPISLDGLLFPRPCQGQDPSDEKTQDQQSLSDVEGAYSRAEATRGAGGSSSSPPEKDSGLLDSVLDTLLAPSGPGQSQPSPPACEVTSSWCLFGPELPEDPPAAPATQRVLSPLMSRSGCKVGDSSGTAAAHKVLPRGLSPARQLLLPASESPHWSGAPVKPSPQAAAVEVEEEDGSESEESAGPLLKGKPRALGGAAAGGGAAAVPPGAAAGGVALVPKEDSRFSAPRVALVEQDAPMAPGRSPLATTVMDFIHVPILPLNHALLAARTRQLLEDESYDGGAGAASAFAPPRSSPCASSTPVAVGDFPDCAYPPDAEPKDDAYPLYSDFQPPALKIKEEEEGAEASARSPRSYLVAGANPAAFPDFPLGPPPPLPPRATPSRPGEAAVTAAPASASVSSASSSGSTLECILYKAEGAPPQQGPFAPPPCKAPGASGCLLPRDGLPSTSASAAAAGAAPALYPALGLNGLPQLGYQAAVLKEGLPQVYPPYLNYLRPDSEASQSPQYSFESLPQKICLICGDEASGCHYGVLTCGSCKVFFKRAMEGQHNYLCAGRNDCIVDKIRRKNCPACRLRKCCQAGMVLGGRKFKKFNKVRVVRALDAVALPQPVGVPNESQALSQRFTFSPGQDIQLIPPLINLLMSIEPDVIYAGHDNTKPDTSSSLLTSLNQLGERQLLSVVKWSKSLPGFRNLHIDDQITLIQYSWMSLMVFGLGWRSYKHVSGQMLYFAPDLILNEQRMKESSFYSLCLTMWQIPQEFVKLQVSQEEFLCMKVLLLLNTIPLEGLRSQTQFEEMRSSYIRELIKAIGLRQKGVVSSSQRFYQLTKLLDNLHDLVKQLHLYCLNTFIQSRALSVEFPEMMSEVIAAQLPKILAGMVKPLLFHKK
The assay is described as follows: Co-transfection assay, PR agonist mode. The class given is cell-based. Further details: expressed in transfected cells; host or cells: CV-1 cells. The method, then:
as §1, §2, §3

The target of assay [4] is T4, human AR (Homo sapiens, UniProt P10275).
T4 construct: expressed in transfected cells; host or cells: CV-1 cells (African green monkey kidney fibroblasts), transient calcium phosphate transfection
T4 sequence (P10275 1-920): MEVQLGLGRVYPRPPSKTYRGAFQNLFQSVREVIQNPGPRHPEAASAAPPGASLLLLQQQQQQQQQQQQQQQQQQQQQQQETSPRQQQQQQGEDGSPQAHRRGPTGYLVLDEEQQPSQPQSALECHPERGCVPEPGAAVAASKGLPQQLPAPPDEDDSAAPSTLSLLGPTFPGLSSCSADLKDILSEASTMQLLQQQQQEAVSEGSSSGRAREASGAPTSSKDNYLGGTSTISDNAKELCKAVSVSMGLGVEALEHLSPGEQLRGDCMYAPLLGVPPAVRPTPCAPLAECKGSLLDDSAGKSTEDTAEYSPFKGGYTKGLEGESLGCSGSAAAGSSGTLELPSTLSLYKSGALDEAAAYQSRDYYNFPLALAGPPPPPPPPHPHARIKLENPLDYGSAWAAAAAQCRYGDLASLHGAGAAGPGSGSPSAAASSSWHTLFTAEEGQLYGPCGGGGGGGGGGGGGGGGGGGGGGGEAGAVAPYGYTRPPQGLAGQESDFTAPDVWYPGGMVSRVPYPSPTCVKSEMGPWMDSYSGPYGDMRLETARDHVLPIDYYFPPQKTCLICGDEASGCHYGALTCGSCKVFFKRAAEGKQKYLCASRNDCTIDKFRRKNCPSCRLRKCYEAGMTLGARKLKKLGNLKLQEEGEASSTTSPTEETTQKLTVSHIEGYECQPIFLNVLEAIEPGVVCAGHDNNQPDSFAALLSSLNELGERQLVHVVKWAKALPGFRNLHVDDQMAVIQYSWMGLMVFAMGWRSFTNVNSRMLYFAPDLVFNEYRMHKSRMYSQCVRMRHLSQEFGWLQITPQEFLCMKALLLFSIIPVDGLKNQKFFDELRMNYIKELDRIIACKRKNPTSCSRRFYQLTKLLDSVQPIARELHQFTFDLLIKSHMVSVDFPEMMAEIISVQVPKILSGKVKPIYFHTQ
Briefly: cell-based. The format is cell-based.
Description: The co-transfection assay provides a method for identifying functional agonists and partial agonists which mimic, or antagonists which inhibit, the effect of native hormones, and quantifying their activity for responsive IR proteins. In this regard, the co-transfection assay mimics an in vivo system in the laboratory. Importantly, activity in the co-transfection assay correlates very well with known in vivo activity, such that the co-transfection assay functions as a qualitative and quantitative predictor of a tested compounds in vivo pharmacology. See, e.g., T. Berger et al. 41 J. Steroid Biochem. Molec.
as §1
The reporter plasmid, MTV-LUC, contains the cDNA for firefly luciferase (LUC) under control of the mouse mammary tumor virus (MTV) long terminal repeat, a conditional promoter containing an androgen response element. See e.g, Berger et al. supra. In addition, pRS-β-Gal, coding for constitutive expression of E. colβ-galactosidase (β-Gal), was included as an internal control for evaluation of transfection efficiency and compound toxicity.
as §2, §3

Assay [5] concerns the target T4, human AR. The assay is described as follows: cell-based. The class given is binding.
For assay [6], the target named is T3, PR. The assay is described as follows: cell-based.

T1 sequence (P03372 whole entry): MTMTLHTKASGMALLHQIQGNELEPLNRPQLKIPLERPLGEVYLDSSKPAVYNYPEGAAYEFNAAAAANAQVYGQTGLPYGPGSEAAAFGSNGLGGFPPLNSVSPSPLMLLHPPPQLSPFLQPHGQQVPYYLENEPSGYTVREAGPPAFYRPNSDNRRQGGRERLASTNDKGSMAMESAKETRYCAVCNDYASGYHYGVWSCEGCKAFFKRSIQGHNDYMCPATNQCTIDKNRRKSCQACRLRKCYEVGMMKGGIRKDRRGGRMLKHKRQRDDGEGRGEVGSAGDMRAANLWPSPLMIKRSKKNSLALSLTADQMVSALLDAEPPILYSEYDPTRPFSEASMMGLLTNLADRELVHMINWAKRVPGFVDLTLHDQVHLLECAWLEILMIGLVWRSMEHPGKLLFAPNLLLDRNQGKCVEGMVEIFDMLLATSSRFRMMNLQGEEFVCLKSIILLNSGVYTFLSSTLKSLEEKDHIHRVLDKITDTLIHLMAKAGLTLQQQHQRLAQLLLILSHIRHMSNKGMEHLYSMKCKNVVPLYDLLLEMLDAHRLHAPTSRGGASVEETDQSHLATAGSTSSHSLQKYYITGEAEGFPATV

For `Cn1c(=O)cc(C(F)(F)F)c2cc3c(cc21)N1CCCC1(C)CC3` (racemic) [Compound 103, (R/S)-6,7,7a,11-Tetrahydro-1,7a-dimethyl-4-trifluoromethyl-2-pyridono[5,6-g]pyrrolidino[1,2-a]quinoline], the EC50 on ER [1] and on PR [3] was more than 10 µM in each case. For the same molecule, the IC50 on ER [2] and at GR was more than 10 µM throughout.

Take `CC1(C)CCc2cc3c(C(F)(F)F)c(F)c(=O)[nH]c3cc2N1` [Compound 105, 7-Fluoro-1,2,3,4-tetrahydro-2,2-dimethyl-6-trifluoromethyl-8-pyridono[5,6-g]quinoline]: the “AR Antagonist CV-1 Cells Efficacy (%)” value at human AR [4] (% of maximal inhibition, fixed DHT at EC50, na = not active) is on record as 31%. Also, at human AR [4] (co-transfection assay, summary of Tables 1-2), the “AR agonist/antagonist profile (in words)” value is “mixed AR agonists/antagonists”. In addition, the “AR Agonist CV-1 Cells Efficacy (%)” value at human AR [4] (percent maximal response relative to reference agonist DHT, na = not active) worked out at 48%. The Ki – broadly, the equilibrium dissociation constant of an inhibitor or competing ligand from its target – at human AR [5] was 0.026 µM. For the same molecule, the EC50 at ER [1] and on PR [3] was more than 10 µM in each case. Besides, the 50% inhibitory concentration (IC50) (as a rule, the midpoint of a concentration-inhibition curve) on ER [2] is 0.034 µM; against GR, more than 10 µM.

In turn, `C[C@]12CCC(=O)C[C@@H]1CC[C@@H]1[C@@H]2CC[C@]2(C)[C@@H](O)CC[C@@H]12` [DHT, dihydrotestosterone, reference compound] yielded an IC50 at PR [6] of 1.8 µM. Further, on PR [3], the 50% effective concentration (EC50) – broadly, the concentration that produces a half-maximal response – is more than 10 µM.
